Here are results for 5 compounds from patent publication US7414031B2, “5-nitro-nucleoside compounds for treating viral infections” (priority 2004, dated 2008).

The subject of data set [1] is HCV replicon I389luc-ubi-neo/NS3-3′/ET in ET (Huh-lucubineo-ET) cell line. Briefly: Replicon Assay. The data set is classed as cell-based. The following applies: Hepatitis C virus, read-out: Replicon Assay. The method, then: A cell line, ET (Huh-lucubineo-ET) is used for screening of compounds of the present invention for HCV RNA dependent RNA polymerase. The ET cell line is stably transfected with RNA transcripts harboring a I389luc-ubi-neo/NS3-3′/ET; replicon with firefly luciferase-ubiquitin-neomycin phosphotransferase fusion protein and EMCV-IRES driven NS3-5B polyprotein containing the cell culture adaptive mutations (E1202G; T1280I; K1846T) (Krieger at al, 2001 and unpublished). The ET cells are grown in DMEM, supplemented with 10% fetal calf serum, 2 mM Glutamine, Penicillin (100 IU/mL)/Streptomycin (100 μg/mL), 1× nonessential amino acids, and 250 μg/mL G418 (“Geneticin”). They are all available through Life Technologies (Bethesda, Md.). The cells are plated at 0.5-1.0×10^4 cells/well in the 96 well plates and incubated for 24 hrs before adding nucleoside analogs. […] Luciferase activity will be measured 48-72 hours later by adding a lysis buffer and the substrate (Catalog number Glo-lysis buffer E2661 and Bright-Glo leuciferase system E2620 Promega, Madison, Wis.). […] Under the same condition, cytotoxicity of the compounds will be determined using cell proliferation reagent, WST-1 (Roche, Germany). […] IC50 and TC50 values were calculated by fitting % inhibition at each concentration to the following equation: % inhibition=100%/[(IC50/[I])^b+1] where b is Hill's coefficient.

Another data set deals with T1, recombinant HCV-NS5b (Hepatitis C virus genotype 1b, UniProt Q9WMX2).
T1 construct: (His)6 (C); made in house; host or cells: XL-1 cells (E. coli)
Briefly: HCV-NS5b Enzyme Assay. It is filed as biochemical. From the text:
The coding sequence of NS5b protein is cloned by PCR from pFKI389luc/NS3-3′/ET as described by Lohmann, V., et al. (1999) Science 285, 110-113 using the following primers: […] (SEQ. ID. NO. 1) […] (SEQ. ID. NO. 2)
The cloned fragment is missing the C terminus 21 amino acid residues. The cloned fragment is inserted into an IPTG-inducible expression plasmid that provides an epitope tag (His)6 at the carboxy terminus of the protein.
The recombinant enzyme is expressed in XL-1 cells and after induction of expression, the protein is purified using affinity chromatography on a nickel-NTA column. Storage condition is 10 mM Tris-HCl pH 7.5, 50 mM NaCl, 0.1 mM EDTA, 1 mM DTT, 20% glycerol at −20° C.
The polymerase activity is assayed by measuring incorporation of radiolabeled UTP into a RNA product using a biotinylated, heteropolymeric template, which includes a portion of the HCV genome. Typically, the assay mixture (50 μL) contains 10 mM Tris-HCl (pH 7.5), 5 mM MgCl2, 0.2 mM EDTA, 10 mM KCl, 1 unit/μL RNAsin, 1 mM DTT, 10 μM each of NTP, including [^3H]-UTP, and 10 ng/μL heteropolymeric template. Test compounds are initially dissolved in 100% DMSO and further diluted in aqueous buffer containing 5% DMSO. Typically, compounds are tested at concentrations between 1 nM and 100 μM. […] Incorporation of radioactivity is determined by scintillation counting.

The conditions of data set [2]: patients treated at currently recommended doses; cited from earlier work.
Another data set deals with HCV. The following applies: treatment of HCV with interferon; cited from earlier work.

Consider `C[C@@]1(O)[C@H](O)[C@@H](CO)O[C@H]1n1cc(C(=O)O)c2c(N)ncnc21` [Comparative Example A, 7-(2′-methyl-β-D-ribofuranosyl)-4-amino-5-carboxy-pyrrolo[2,3-d]pyrimidine, reference compound], for which the IC50 in data set [1] is > 50000 nM.

In the case of `C[C@@]1(O)[C@H](O)[C@@H](CO)O[C@H]1n1cc([N+](=O)[O-])c2c(N)ncnc21` [Compound 101, 7-(2′-C-methyl-β-D-ribofuranosyl)-4-amino-5-nitro-pyrrolo[2,3-d]pyrimidine], the IC50 in data set [1] stood at 60 nM.

As to `C[C@@]1(O)[C@H](O)[C@@H](COP(=O)(O)OP(=O)(O)OP(=O)(O)O)O[C@H]1n1cc([N+](=O)[O-])c2c(N)ncnc21` [Compound 104, 7-(2′-C-methyl-5′-triphospho-β-D-ribofuranosyl)-4-amino-5-nitro-pyrrolo[2,3-d]pyrimidine], at recombinant HCV-NS5b, the IC50 stood at 2600 nM.

In the case of `NC(=O)c1ncn([C@@H]2O[C@H](CO)[C@@H](O)[C@H]2O)n1` [Ribavirin, 1-β-D-ribofuranosyl-1H-1,2,-4-triazole-3-carboxamide], the “patients with significant hemolysis” value in data set [2] is on record as 10-20%.

Turning to interferon, the “response rate (long term efficacy)” value in the data set on HCV is “about 25%”.
